Assay results taken from publication PMC10206162 (Nature Communications, 2023).
Like-named read-outs stand apart in the source and are kept apart here. Where no end group is shown, it is not given here.

Tests used:
[1] = molecular target: mouse NaV1.7 (Mus musculus, UniProt Q62205); experiment: cell-based; type: cell-based
Protocol: HEK293 cells stably expressing the α-subunit of mouse Nav1.7, human NaV1.6 or Nav1.7 plus the β1 subunit (SB Drug Discovery, Glasgow, United Kingdom) and Chinese Hamster Ovary (CHO) cells stably expressing human NaV1.8 plus the β3 subunit in a tetracycline-inducible system (ChanTest, Cleveland, OH, United States), were cultured were maintained on MEM supplemented with 10% heat-inactivated FBS, 2 mM L-glutamine in an incubator at 37 °C with 5% CO2 and passaged every 3–4 days (at 70–80% confluency) using TrypLE Express (Thermo Fisher Scientific).
Whole-cell patch-clamp experiments were performed using a QPatch16X automated electrophysiology platform (Sophion Bioscience, Ballerup, Denmark). The extracellular solution (ECS) contained 145 mM NaCl (replaced with 70 mM choline chloride for NaV1.7), 4 mM KCl, 2 mM CaCl2, 1 mM MgCl2, 10 mM HEPES, and 10 mM glucose (pH 7.4; osmolarity, 305 mOsm). The intracellular solution (ICS) contained 140 mM CsF, 1 mM/5 mM EGTA/CsOH, 10 mM HEPES, and 10 mM NaCl (pH 7.3) with CsOH (osmolarity, 320 mOsm). Peptides were diluted in ECS with 0.1% BSA.
Concentration-response experiments were performed using a holding potential of −90 mV and a 50-ms pulse to −20 mV ( + 10 mV for NaV1.8) every 20 s (0.05 Hz). […] Conductance-voltage curves were obtained by calculating the conductance (G) at each voltage (V) using the equation G = I/(V – Vrev), where Vrev is the reversal potential, and they were fitted with the following single or double Boltzmann equations: I = Imax/{1 + exp[(V50 − Vm)/k]} or I = {Imax(a)/[1+exp({V50 (a) – Vm}/k(a))]} + {Imax(b)/[1 + exp({V50(b) – Vm}/k(b))]}, where Imax is the maximal current after normalisation to the driving force, V50 is the half-activation potential, Vm is the membrane potential, and k is the slope factor. For statistical comparison of G-V curves, a two-tailed unpaired t-test was used.

[2] = molecular target: human NaV1.7 (Homo sapiens, UniProt Q15858); experiment: cell-based
Sequence of human NaV1.7 (Q07699 19-218): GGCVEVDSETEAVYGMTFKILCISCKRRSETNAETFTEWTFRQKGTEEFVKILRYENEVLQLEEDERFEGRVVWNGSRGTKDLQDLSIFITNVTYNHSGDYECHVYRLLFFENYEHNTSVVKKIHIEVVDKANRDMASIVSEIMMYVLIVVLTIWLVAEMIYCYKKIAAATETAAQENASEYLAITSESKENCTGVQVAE
Sequence of human NaV1.7 (Q15858 whole entry): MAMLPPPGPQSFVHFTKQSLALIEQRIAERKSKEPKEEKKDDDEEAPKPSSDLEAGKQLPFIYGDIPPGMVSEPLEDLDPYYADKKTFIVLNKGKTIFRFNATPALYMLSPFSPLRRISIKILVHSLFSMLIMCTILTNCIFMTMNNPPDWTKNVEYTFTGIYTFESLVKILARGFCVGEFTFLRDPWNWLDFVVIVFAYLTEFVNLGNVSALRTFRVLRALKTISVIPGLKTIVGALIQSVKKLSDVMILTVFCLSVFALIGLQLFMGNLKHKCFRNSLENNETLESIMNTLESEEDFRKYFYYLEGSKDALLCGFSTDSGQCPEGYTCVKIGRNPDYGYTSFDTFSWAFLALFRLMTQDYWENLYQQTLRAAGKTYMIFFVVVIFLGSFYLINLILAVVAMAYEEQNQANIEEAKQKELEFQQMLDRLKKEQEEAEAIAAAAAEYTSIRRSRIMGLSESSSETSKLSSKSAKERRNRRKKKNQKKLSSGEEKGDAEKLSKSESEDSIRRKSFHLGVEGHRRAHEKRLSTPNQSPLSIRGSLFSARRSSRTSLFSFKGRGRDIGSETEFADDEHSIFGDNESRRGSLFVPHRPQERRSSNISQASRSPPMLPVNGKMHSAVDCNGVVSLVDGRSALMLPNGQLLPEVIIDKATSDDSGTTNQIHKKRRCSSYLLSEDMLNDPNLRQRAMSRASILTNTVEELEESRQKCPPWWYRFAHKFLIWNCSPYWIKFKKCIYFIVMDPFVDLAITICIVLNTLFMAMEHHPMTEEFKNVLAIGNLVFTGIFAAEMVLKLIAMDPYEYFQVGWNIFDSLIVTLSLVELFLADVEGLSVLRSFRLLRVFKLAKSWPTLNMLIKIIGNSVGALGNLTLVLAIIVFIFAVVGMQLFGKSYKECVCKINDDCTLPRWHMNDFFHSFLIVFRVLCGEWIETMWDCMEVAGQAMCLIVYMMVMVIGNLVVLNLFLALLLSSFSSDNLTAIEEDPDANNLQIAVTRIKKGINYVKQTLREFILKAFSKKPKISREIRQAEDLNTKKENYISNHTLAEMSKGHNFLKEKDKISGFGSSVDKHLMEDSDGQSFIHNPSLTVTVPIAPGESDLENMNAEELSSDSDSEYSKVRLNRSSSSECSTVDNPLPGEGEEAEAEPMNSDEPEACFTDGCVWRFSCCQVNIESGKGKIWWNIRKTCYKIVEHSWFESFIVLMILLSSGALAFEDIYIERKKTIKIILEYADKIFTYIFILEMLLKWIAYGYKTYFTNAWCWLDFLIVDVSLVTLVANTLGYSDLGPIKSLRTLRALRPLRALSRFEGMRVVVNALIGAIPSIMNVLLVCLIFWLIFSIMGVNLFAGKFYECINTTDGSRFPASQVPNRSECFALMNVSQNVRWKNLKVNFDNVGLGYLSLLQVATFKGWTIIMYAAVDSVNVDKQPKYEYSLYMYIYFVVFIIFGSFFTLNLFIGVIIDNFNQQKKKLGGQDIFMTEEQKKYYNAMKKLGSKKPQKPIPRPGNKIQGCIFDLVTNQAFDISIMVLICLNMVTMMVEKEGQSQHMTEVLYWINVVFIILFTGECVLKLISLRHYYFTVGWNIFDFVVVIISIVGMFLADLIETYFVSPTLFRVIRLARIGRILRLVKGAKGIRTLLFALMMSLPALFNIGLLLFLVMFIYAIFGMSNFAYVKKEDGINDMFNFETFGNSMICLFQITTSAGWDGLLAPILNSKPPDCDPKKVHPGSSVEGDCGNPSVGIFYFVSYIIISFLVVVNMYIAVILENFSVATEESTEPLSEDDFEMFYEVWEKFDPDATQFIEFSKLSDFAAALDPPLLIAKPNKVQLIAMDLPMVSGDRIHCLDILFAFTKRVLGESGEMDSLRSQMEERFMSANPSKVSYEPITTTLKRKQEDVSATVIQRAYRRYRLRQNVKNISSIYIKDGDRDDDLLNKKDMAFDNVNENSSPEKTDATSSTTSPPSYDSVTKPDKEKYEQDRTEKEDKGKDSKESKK

[3] = molecular target: human NaV1.6 (Homo sapiens, UniProt Q9UQD0); experiment: cell-based
[4] = molecular target: human NaV1.8 (Homo sapiens, UniProt Q9Y5Y9); experiment: cell-based; settings: EC50 (potency), hNaV1.8
[5] = molecular target: human NaV1.9 (Homo sapiens, UniProt Q9UI33); type: cell-based

Sequence of mouse NaV1.7 (Q62205 whole entry): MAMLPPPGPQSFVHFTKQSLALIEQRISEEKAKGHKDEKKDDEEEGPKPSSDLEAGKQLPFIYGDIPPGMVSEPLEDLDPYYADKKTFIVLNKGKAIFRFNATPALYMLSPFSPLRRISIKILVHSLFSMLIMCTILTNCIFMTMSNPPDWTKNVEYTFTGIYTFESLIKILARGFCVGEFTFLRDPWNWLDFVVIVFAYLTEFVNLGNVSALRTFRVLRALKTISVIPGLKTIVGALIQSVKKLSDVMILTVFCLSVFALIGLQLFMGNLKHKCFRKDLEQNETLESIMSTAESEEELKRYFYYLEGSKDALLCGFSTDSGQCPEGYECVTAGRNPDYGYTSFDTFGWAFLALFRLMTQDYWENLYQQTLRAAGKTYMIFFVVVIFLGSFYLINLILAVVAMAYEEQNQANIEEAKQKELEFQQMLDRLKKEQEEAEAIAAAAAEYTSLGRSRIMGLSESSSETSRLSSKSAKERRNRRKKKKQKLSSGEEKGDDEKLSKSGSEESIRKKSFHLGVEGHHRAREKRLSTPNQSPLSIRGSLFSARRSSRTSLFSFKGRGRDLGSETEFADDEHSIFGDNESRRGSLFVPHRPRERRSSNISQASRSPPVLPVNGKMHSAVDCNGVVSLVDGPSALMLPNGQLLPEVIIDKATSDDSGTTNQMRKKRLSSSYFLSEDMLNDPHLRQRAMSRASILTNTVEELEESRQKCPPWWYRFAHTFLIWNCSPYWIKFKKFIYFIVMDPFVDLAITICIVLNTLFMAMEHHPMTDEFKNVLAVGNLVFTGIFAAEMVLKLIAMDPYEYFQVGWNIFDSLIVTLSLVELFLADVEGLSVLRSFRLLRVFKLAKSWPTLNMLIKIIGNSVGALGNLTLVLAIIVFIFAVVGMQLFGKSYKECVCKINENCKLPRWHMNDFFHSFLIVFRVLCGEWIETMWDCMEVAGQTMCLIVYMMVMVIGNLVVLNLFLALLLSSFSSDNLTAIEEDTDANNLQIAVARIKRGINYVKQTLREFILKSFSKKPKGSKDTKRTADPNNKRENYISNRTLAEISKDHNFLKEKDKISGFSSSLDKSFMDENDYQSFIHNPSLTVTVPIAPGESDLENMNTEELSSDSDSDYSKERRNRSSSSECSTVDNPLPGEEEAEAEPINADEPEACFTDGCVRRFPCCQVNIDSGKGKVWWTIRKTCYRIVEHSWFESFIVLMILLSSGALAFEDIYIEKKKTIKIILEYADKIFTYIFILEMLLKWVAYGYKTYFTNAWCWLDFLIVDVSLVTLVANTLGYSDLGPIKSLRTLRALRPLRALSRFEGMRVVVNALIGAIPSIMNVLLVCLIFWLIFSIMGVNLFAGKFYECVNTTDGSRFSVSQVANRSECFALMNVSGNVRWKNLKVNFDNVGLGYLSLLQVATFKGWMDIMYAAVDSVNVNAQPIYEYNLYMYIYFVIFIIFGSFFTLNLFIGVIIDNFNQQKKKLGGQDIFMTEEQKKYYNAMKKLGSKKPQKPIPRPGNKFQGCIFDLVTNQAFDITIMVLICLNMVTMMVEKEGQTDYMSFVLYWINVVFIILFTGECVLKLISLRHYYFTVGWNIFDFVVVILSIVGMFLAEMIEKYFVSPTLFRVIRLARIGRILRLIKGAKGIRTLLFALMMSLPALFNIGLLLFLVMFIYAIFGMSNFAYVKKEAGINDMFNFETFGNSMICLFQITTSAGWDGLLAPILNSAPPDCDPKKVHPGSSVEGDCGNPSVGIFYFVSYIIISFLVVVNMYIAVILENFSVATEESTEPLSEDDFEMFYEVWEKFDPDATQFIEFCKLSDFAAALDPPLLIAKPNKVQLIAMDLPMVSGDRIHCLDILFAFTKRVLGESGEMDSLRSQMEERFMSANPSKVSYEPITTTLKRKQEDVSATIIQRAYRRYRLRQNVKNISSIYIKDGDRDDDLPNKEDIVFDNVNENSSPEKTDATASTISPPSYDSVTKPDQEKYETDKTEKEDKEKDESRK
Sequence of mouse NaV1.7 (Q07699 19-218, further chain): as the sequence (Q07699 19-218) above

Substance | EC50 [1] [nM] | mNaV1.7 sustained current, % of control peak ([1]; 3 µM peptide, step –90 to –20 mV, n = 4-5 cells, mean ± SEM, SEM) [%] | EC50 ([1]; EC50 (potency), mNaV1.7, HEK293, hold −90 mV, pulse to −20 mV, I40-ms/Imax, mean ± SEM, SEM) [nM] | EC50 ([1]; EC50, 95% CI (profile likelihood), mNaV1.7 (I40ms), Supplementary Fig. 2f / 2i) [nM] | hNaV1.7 peak current amplitude, % of control [2] [%] | EC50 ([2]; EC50 (potency), hNaV1.7, SEM) [nM] | hNaV1.7 sustained current (I40-ms), % of control peak ([2]; SEM) [%] | EC50 ([3]; SEM) [nM] | EC50 [4] [nM] | hNaV1.9 I50-ms, % of peak ([5]; SEM) [%] | EC50 ([2]; EC50 (potency), hNaV1.7) [nM] | EC50 ([2]; NaV1.7, best-fit EC50) [nM] | EC50 [3] [nM] | activity at hNaV1.9 (sustained current vs control) [5]
FLPLLILGSLLMTPPVIQAIHDAQR-NH2 [Pc1a, poneratoxin] | 1160 | 8.8 ± 2.0 | 1800 ± 200 | 718 to 2680 | 57.8 ± 4.9 | 2300 ± 400 | 12.2 ± 1.2 | 97 ± 10 | > 10000 | 58.6 ± 4.4 | – | – | – | –
GLPLLALLMTLPFIQHAITN-NH2 [Mri1a] | – | – | – | – | 68.1 ± 10.6 | – | 3.4 ± 0.7 | – | – | – | > 10000 | 5600 | 3240 | inactive
